# Results published in patent US10273451B2, “Immortalization of cells including neuronal cells” (The Johns Hopkins University, priority 2005, dated 2019).
# Legend:
# 50B11 cells [1] = assay: Axonal degeneration, total neurite length measurement; type: cell-based, rat; details: differentiated 50B11 cells treated 24 hours
# TRPV-1 = molecular target: T1, TRPV-1 (Rattus norvegicus, UniProt O35433); assay: Ca2+ microfluorimetry (fura-2 ratiometric imaging) of the capsaicin response; type: cell-based
# T1 construct: endogenous in cells; host or cells: 50B11 immortalized rat DRG neuronal cell line, with and without forskolin differentiation
# Procedure: Ca^2+ microfluorimetry and imaging in forskolin-differentiated 50HB cells were performed by ratiometric imaging of the Ca2+-sensitive fluorescent dye fura-2. Cells were grown on glass coverslips in 12-well dishes and calcium imaging was done with and without differentiation with 50-μM forskolin. Cell were loaded for 15 min at 37° C. with 2 M fura-2 acetoxymethyl ester (Molecular Probes, Carlsbad, Calif.) in Krebs-HEPES buffer (100 mM NaCl, 2.0 mM KCl, 1.0 mM CaCl2, 1.0 mM MgCl2, 1.0 mM NaH2PO4, 4.2 mM NaHCO3, 12.5 mM HEPES and 10.0 mM glucose), then washed for 3 times in buffer to remove remaining fura-2 ester. The coverslip with loaded cells was then mounted on an inverted epifluorescence microscope (Zeiss, Axiovert 200) and covered with 60 μl Krebs-HEPES buffer or buffer with capsaicin. In capsazepin pretreatment experiments, capsazepin was added Images were acquired every ˜3 seconds with an extended Hamamatsu Digital Camera C4742-95 (Hamamatsu Photonics, Barcelona, Spain) using a dual filter wheel (Sutter Instruments, Novato, Calif., USA) equipped with 340 and 380 nm, 10-nm-bandpass filters (Omega Optics, Madrid, Spain). Data was acquired using InCyt Im2 software (Intracellular Imaging, Inc.). Fluorescence changes are expressed as the ratio of fluorescence at 340 and 380 nm (F340/F380).
# 50B11 cells [2] = details: 24 hours
# Procedure: Conditions for culturing the 50B11 cells and measuring the ATP levels were optimized for the 96-well plate format. Initially 500 cells/well were plated in 96-well plates for 24 hours and then differentiated with forskolin (50 μM) in culture medium with reduced serum (0.2%). […] Cellular ATP levels were measured using the ViaLight Plus kit (Cambrex, city, state) according to manufacturer's instructions. This luciferase-based assay allows measurement of ATP levels on a luminometer with minimal manipulation of the well contents.
# Next, we tested whether we can evaluate the neurotoxicity of capsaicin in an assay suitable for 96-well plate format. Capsaicin causes axonal degeneration and death of nociceptive DRG sensory neurons [ref here]. In order to evaluate cell survival we used a luciferase-based assay to measure cellular ATP levels.
# 50B11 cells [3] = assay: Real-time PCR of gene expression changes; type: cell-based, rat
# Procedure: For analysis of changes in gene expression, 501311 cells were grown in media containing forskolin (50 μM), NGF (10 ng/ml), GDNF (10 ng/ml) or vehicle control for 24 hours. Total RNA was isolated using the TRIzol Reagent according to the manufacturer's recommendation. Two μg total RNA was reverse-transcribed using Ready-To-Go You-Prime First-Strand Bead (Amersham Biosciences, Piscataway, N.J.) according to manufacturer's protocols. Real-time PCR was carried out in a DNA Engine Opticon Continuous Fluorescence Detection System using DyNAmo SYBR Green Polymerase (MJ Research, Waltham, Mass.). All primers were designed according to the individual gene sequence in the GenBank/EMBL nucleotide sequence database (primer sequences are available upon request). The binding positions of all primers were chosen to produce amplicons of 150 to 200 base pairs and to achieve maximum efficiency and specificity. All primer sequences were checked for specificity by a BLAST search in the GenBank/EMBL nucleotide sequence database. The primers were synthesized by Integrated DNA Technologies, Inc. (Coralville, Iowa). […] The expression levels of individual genes before and after treatment were calculated using the comparative CT method.
# 50B11 cells [4] = assay: Forskolin-induced differentiation and neurite extension of the immortalized DRG neuronal line; type: cell-based, rat; details: for neurite extension in presence of neurotrophic factor: 50B11 cells
# Procedure: One of the immortalized DRG neuronal cell lines (50B11) maintained self-replication capability over many cell divisions (>300) and was used in further analysis of neuronal properties. Differentiation and axonal elongation was induced in these cells by addition of forskolin (50 μM) into the culture medium. Within hours, more than 90% cells stopped dividing and extended long neurites. These cells were grown in 24-well plates on glass coverslips, fixed with 4% paraformaldehyde and immunostained for presence of neurofilament (SMI-32 antibody from Stemberger Monoclonals Inc., Lutherville, Md.), ßIII-tubulin (Promega, Madison Wis.), transient receptor potential channel, vanilloid subfamily member-1 (TRPV-1) (Abeam, Cambridge, Mass.), calcitonin gene related protein (CGRP) (source, city, state) or isolectin B-4 (IB4) (Vector Laboratories, Burlingame, Calif.) using standard methods (Keswani et al., supra). Slides were counterstained with 4′,6-Diamidino-2-phenylindole (DAPI) and mounted with Vectashield (Vector Laboratories, Burlingame, Calif.). Specificity of all primary and secondary antibodies was confirmed using appropriate positive and negative control cultures.
# T1 sequence (O35433 whole entry): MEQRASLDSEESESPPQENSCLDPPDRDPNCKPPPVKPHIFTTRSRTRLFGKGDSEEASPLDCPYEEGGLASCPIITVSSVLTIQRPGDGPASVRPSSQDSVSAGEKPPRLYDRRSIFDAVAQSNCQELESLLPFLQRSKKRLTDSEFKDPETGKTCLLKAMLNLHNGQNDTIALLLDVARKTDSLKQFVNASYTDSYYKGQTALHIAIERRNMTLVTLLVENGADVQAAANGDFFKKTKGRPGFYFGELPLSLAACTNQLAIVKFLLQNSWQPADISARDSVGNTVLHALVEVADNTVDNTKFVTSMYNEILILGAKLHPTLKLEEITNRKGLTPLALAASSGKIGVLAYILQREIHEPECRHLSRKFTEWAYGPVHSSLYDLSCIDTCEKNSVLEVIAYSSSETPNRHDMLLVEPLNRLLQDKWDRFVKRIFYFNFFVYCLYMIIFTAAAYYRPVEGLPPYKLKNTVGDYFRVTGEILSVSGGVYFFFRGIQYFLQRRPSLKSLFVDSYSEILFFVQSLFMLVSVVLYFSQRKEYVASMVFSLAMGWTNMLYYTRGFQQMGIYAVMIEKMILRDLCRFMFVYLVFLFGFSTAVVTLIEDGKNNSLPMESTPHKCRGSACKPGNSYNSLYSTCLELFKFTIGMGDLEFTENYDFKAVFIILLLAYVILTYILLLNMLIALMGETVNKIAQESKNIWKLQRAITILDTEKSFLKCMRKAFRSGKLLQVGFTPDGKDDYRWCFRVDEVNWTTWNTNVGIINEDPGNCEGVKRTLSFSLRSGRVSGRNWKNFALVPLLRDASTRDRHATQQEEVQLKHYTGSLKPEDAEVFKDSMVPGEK
molecule,measurement,setting,value
Nc1ccn([C@H]2CC[C@@H](CO)O2)c(=O)n1 [ddC],toxicity by total neuritic lengths,50B11 cells [1],validated this toxicity
Oc1cc2c(cc1O)CN(C(=S)NCCc1ccc(Cl)cc1)CCC2 [capsazepin],prevention of capsaicin-induced rise in intracellular calcium,TRPV-1; pretreatment of 50B11 cells before capsaicin,preventable
same,prevention of capsaicin-induced neurotoxicity (ATP levels),50B11 cells [2]; co-administration with capsaicin,preventable
COc1cc(CNC(=O)CCCC/C=C/C(C)C)ccc1O [capsaicin],intracellular calcium levels,"TRPV-1; 50B11 cells, fura-2 F340/F380",rapid rise in intracellular calcium levels
same,reduction in ATP levels,"50B11 cells [2]; 10 μM capsaicin, differentiated 50B11 cells",about 50%
"NGF: neurotrophic factor, nerve growth factor",Trk-A upregulation,50B11 cells [3]; forskolin plus NGF 10 ng/ml versus forskolin plus GDNF,more upregulated
same,neurite extension in presence of neurotrophic factor,50B11 cells [4],extended longer neurites
CCC(C)(C)C(=O)C(=O)N1CCC[C@H]1C(=O)OCCCc1cccnc1 [GPI-1046],prevention of ddC neurotoxicity (ATP levels),50B11 cells [2]; co-administration with ddC,preventable
C=C[C@@]1(C)CC(=O)[C@]2(O)[C@@]3(C)[C@@H](O)CCC(C)(C)[C@@H]3[C@H](O)[C@H](OC(C)=O)[C@@]2(C)O1 [forskolin],cells that stopped dividing and extended long neurites,"50B11 cells [4]; forskolin 50 μM in culture medium, within hours",more than 90%
"GDNF: neurotrophic factor acting on c-ret and GFRα-1 (protein, UniProt P39905 78-211, looked up) Glial cell line-derived …: SPDKQMAVLPRRERNRQAAAANPENSRGKGRRGQRGKNRGCVLTAIHLNVTDLGLGYETKEELIFRYCSGSCDAAETTYDKILKNLSRNRRLVSDKVGQACCRPIAFDDDLSFLDDNLVYHILRKHSAKRCGCI",GFRα-1 upregulation,50B11 cells [3]; forskolin plus GDNF 10 ng/ml versus forskolin plus NGF,more upregulated
same,neurite extension in presence of neurotrophic factor,50B11 cells [4],extended longer neurites
